Assays:
[1] = tested on: Respiratory Syncytial Virus (RSV); test: RSV-induced cytokine production in NHBE cells; format: cell-based; settings: RSV multiplicity 3, 48 h, lipid 200 ug/ml
[2] = tested on: Respiratory Syncytial Virus (RSV); test: RSV-induced cytokine production in BEAS2B cells; format: cell-based; settings: RSV multiplicity 3, 48 h, lipid 200 ug/ml
[3] = tested on: MAPK, IkBα and MKP-1 in differentiated U937 cells; test: Western blot of LPS induced MAPK and IkBα phosphorylation and MKP-1 expression; format: cell-based, human; settings: LPS 10 ng/ml, liposomes 200 μg/ml
Procedure: FIG. 4. POPG inhibits LPS induced MAPK and IkBα phosphorylation and MKP-1 expression. POPG liposomes (200 μg/ml) were added to monolayer cultures of differentiated U937 cells that received either no treatment or 10 ng/ml LPS. After incubating for the indicated time, cells were lysed using lysis buffer containing detergent, protease inhibitors and phosphatase inhibitors. Aliquots with 15 μg of protein from lysates were separated by SDS-PAGE and transferred onto nitrocellulose membranes. The amount of phosphorylation was detected using phospho-specific antibodies to p38MAPK, p42/p44 ERK, p46-p54 INK and phosphorylated IkBα. To determine equal loading of proteins between samples, the membranes were probed with rabbit polyclonal p46 INK, p42/p44 ERK, p38MAPK and IkBα antibodies. The expression of MKP-1 was detected with a polyclonal MKP-1 antibody.
FIG. 5. Quantification of POPG inhibition of LPS induced signaling. Western blot analysis as described in FIG. 4 was performed three or four times on separate samples and the intensity of phospho-p38, phospho-IkBα, phosphoERK, phospho JNK, phospho IkBα, total IkBα and MKP-1 was calculated using NIH Image J1.34 software.
FIG. 6. Molecular specificity in POPG action. Liposomes composed of POPC, DPPG or POPG were added to monolayer cultures of differentiated U937 cells that received either no treatment or 10 ng/ml LPS, as indicated. After 30 or 60 min cells were lysed and 15 μg of cellular protein from cultures was separated by SDS-PAGE and transferred onto nitrocellulose membranes. Phosphorylated and nonphosphorylated proteins were detected as described in FIG. 4.
FIG. 7. Comparative quantification of lipid dependent antagonism of LPS signaling. Western blot analysis was performed as described in FIG. 6 in three independent experiments. The intensity of the phosphorylated (p38, ERK, JNK and IkBα) and nonphosphorylated (total IkBα and MKP-1) proteins of interest was measured using NIH Image 0.1.34 software. Significance—*p<0.05, ** p<0.01.
Monolayers of unstimulated or stimulated macrophages were lysed on ice with 250 μl of ice-cold lysis buffer [50 mM Tris.HCl, pH 8.0, containing 137 mM NaCl, 10% (vol/vol) glycerol, 1% (vol/vol) Nonidet P-40, 1 mM NaF, 10 μg/ml leupeptin, 10 μg/ml aprotinin, 2 mM Na3VO4, and 1 mM phenylmethylsulfonyl fluoride (29). Insoluble nuclear material was pelleted by centrifugation at 14,000×g for 10 min at 4° C. and the supernatants were collected. 15 μg of protein from lysates was separated by SDS-PAGE and transferred onto nitrocellulose membranes (30). The blots were then washed in Tris-Tween-buffered saline [TTBS, 20 mM Tris-HCl buffer, pH 7.6, containing 137 mM NaCl and 0.05% (vol/vol) Tween 20], blocked with 5% (wt/vol) nonfat dry milk for 1 hour, and probed according to the method described by Towbin et. al. (30) with phospho-specific antibodies to p46-p54 JNK, p42/p44 ERK, and p38MAPK, or IkBα or with a polyclonal MKP-1 or IkBα antibodies in 5% (wt/vol) BSA dissolved in TTBS. With the use of horseradish peroxidase-conjugated secondary anti-rabbit or anti-mouse antibody, bound antibodies were detected by enhanced chemiluminescence (ECL plus, Amersham Biosciences, Piscataway, N.J.). To determine loading of proteins between samples, the membranes were probed with rabbit polyclonal p46 JNK, p42/p44 ERK, and p38MAPK antibodies.

[4] = tested on: Respiratory Syncytial Virus (RSV); test: Cytopathic effects of RSV upon NHBE cells (photomicrography); format: cell-based; settings: multiplicity 3, 72 h, lipid 200 ug/ml
Procedure: (§1) Monolayers of NHBE cells were infected with RSV at a multiplicity of 3 for 72 h. Infections were performed on cells in either the absence or the presence of POPG (200 ug/ml). The cell monolayers were photographed at a magnification of 200×. Controls consisted of no viral challenge in either the presence or absence of POPG as indicated.
(§2) Monolayers of NHBE cells were infected with RSV at a multiplicity of 3 for 72 h. Infections were performed on cells in either the absence (b) or the presence (c,f) of POPG (200 ug/ml) and POPC (200 ug/ml) as indicated. Cells were photographed at a magnification of 200×. Controls (a,d,e) consisted of cell layers either not exposed to virus or exposed to POPG, and POPC in the absence of virus as indicated.
Monolayers of normal human bronchial epithelial cells were infected with RSV at a multiplicity of 0.5-1, in either the presence or absence of 200 ug/ml POPG, or 200 ug/ml POPC, as indicated.

[5] = tested on: RSV; test: RSV plaque progression in Hep2 monolayers, lipid in agar overlay; format: cell-based, Respiratory Syncytial Virus (RSV); settings: lipid in agar overlay 5 hours after virus, POPG 200-500 ug/ml, POPC 500 ug/ml, 5 days
Procedure: Monolayers of Hep2 cells were subjected to RSV infection at levels that produce ca 100 plaques per well in quantitative plaque assays. The virus was incubated with the cells for 5 hours prior to agar overlay. The agar overlays contained either no additions, or POPG (200-500 ug/ml) or POPC (500 ug/ml).
The effects of POPG upon plaque formation as shown in Panel a of FIG. 39 were quantified in 3 independent experiments and are presented in this figure. The left panel of FIG. 40 provides the numbers of definite, and minute indefinite plaques formed in the absence and presence of POPG (200-500 ug/ml) as indicated. The right panel of FIG. 40 provides the numbers of definite plaques observed in the absence and presence of either POPG or POPC (200-500 ug/ml) as indicated.

[6] = tested on: Respiratory Syncytial Virus (RSV); test: Cytopathic effects of RSV upon BEAS2B cells (photomicrography); format: cell-based; settings: multiplicity 3, 72 h, lipid 200 ug/ml
Procedure: as §1, with “BEAS2B” for “NHBE”
as §2, with “BEAS2B” for “NHBE”
Monolayers of BEAS2B cells were infected with RSV at a multiplicity of 0.5-1, in either the presence or absence of 200 ug/ml POPG, or 200 ug/ml POPC, as indicated.
Monolayers of BEAS2B cells were either uninfected (CONL) or challenged with RSV at a multiplicity of 0.5/cell (RSV). Where indicated in the FIG. 44, RSV challenged cells were also treated with POPC (200 ug/ml) or POPG (200 ug/ml) liposomes; or POPG nanodiscs (nanoPOPG) at concentrations ranging from 100-300 ug/ml. Selected panels and fields are also shown at 400× magnification in FIG. 45.
Where indicated in FIG. 46, RSV challenged cells were also treated with nanodisc forms of dipalmitoyl-phosphatidylcholine (nanoDPPC), palmitoyl-oleoyl-phosphatidylcholine (nanoPOPC), or dioleoyl-phosphatidylcholine (nanoDOPC), dipalmitoyl-phosphatidylglycerol (nanoDPPG), dimyristoyl-phosphatidylglycerol (nanoDMPG), or dioleoyl-phosphatidylglycerol (nanoDOPG). At 72 h after infection, the cultures were examined by photomicrography at a magnification of 200×.

With `CCCCCCCC/C=C\CCCCCCCC(=O)O[C@H](COC(=O)CCCCCCCCCCCCCCC)COP(=O)([O-])OCC[N+](C)(C)C` [POPC, palmitoyl-oleoyl-phosphatidylcholine, reference compound] the IL-6 production [1] was “not”, the IL-6 production [2] was “not” and the “LPS-induced MKP-1 expression” value [3] was “neither POPC nor DPPG exerted a significant effect”. For the same compound, the “LPS-induced phosphorylation of p38, ERK, JNK and IkBα” value ([3]; 15-60 min) was “neither POPC nor DPPG exerted a significant effect”, the “cytopathic effects of RSV” value [4] was “not” and the “progression of RSV infection (plaques)” value [5] was “bullseye plaques”. The “cytopathic effects of RSV” value [6] was “not”.

Source: patent publication US10532066B2, “Surfactant lipids, compositions thereof, and uses thereof” (National Jewish Health, priority 2007, dated 2020)
